# From the supplement of paper PMC12406974
# What was measured:
# Assay in all cases: maximum observed lethal fraction; higher = more cell death
# U2OS BAX/BAK1 DKO = system: U2OS BAX/BAK1 DKO
# U2OS BCL2L12-KO = system: U2OS BCL2L12-KO
# U2OS PTBP1-KO = system: U2OS PTBP1-KO
# U2OS = system: U2OS
# 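Note: FLICK assay: SYTOX Green fluorescence of dead cells tracked over time after drugging in 96-well plates, with total cell counts taken from Triton X-100 lysed wells.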
SMILES,maximum observed lethal fraction (U2OS BAX/BAK1 DKO; 0.01 µM),maximum observed lethal fraction (U2OS BAX/BAK1 DKO; 0.0316 µM),maximum observed lethal fraction (U2OS BAX/BAK1 DKO; 0.1 µM),maximum observed lethal fraction (U2OS BAX/BAK1 DKO; 0.316 µM),maximum observed lethal fraction (U2OS BAX/BAK1 DKO; 1 µM),maximum observed lethal fraction (U2OS BAX/BAK1 DKO; 3.16 µM),maximum observed lethal fraction (U2OS BAX/BAK1 DKO; 10 µM),maximum observed lethal fraction (U2OS BCL2L12-KO; 0.01 µM),maximum observed lethal fraction (U2OS BCL2L12-KO; 0.0316 µM),maximum observed lethal fraction (U2OS BCL2L12-KO; 0.1 µM),maximum observed lethal fraction (U2OS BCL2L12-KO; 0.316 µM),maximum observed lethal fraction (U2OS BCL2L12-KO; 1 µM),maximum observed lethal fraction (U2OS BCL2L12-KO; 3.16 µM),maximum observed lethal fraction (U2OS BCL2L12-KO; 10 µM),maximum observed lethal fraction (U2OS PTBP1-KO; 0.01 µM),maximum observed lethal fraction (U2OS PTBP1-KO; 0.0316 µM),maximum observed lethal fraction (U2OS PTBP1-KO; 0.1 µM),maximum observed lethal fraction (U2OS PTBP1-KO; 0.316 µM),maximum observed lethal fraction (U2OS PTBP1-KO; 1 µM),maximum observed lethal fraction (U2OS PTBP1-KO; 3.16 µM),maximum observed lethal fraction (U2OS PTBP1-KO; 10 µM),maximum observed lethal fraction (U2OS; 0.01 µM),maximum observed lethal fraction (U2OS; 0.0316 µM),maximum observed lethal fraction (U2OS; 0.1 µM),maximum observed lethal fraction (U2OS; 0.316 µM),maximum observed lethal fraction (U2OS; 1 µM),maximum observed lethal fraction (U2OS; 3.16 µM),maximum observed lethal fraction (U2OS; 10 µM),maximum observed lethal fraction (U2OS BAX/BAK1 DKO; 31.6 µM),maximum observed lethal fraction (U2OS BCL2L12-KO; 31.6 µM),maximum observed lethal fraction (U2OS PTBP1-KO; 31.6 µM),maximum observed lethal fraction (U2OS; 31.6 µM),maximum observed lethal fraction (U2OS BAX/BAK1 DKO; 0.001 µM),maximum observed lethal fraction (U2OS BAX/BAK1 DKO; 0.00316 µM),maximum observed lethal fraction (U2OS BCL2L12-KO; 0.001 µM),maximum observed lethal fraction (U2OS BCL2L12-KO; 0.00316 µM),maximum observed lethal fraction (U2OS PTBP1-KO; 0.001 µM),maximum observed lethal fraction (U2OS PTBP1-KO; 0.00316 µM),maximum observed lethal fraction (U2OS; 0.001 µM),maximum observed lethal fraction (U2OS; 0.00316 µM)
CC(=O)c1c(C)c2cnc(Nc3ccc(N4CCNCC4)cn3)nc2n(C2CCCC2)c1=O [Palbociclib],0.0642,0.0646,0.0686,0.0764,0.0783,0.0842,0.0911,0.0599,0.0645,0.0667,0.0699,0.0732,0.0829,0.221,0.0641,0.0713,0.0739,0.0802,0.0817,0.0847,0.109,0.0597,0.068,0.0645,0.0683,0.0747,0.09,0.173,,,,,,,,,,,,
C=CC(=O)Nc1ccc(C(=O)Nc2[nH]nc3c2CN(C(=O)N[C@H](CN(C)C)c2ccccc2)C3(C)C)cc1 [YKL-5-124],,0.0674,0.0739,0.0839,0.0802,0.0829,0.0948,,0.0697,0.0761,0.0812,0.0841,0.0923,0.115,,0.0724,0.0809,0.0854,0.0868,0.0884,0.1,,0.0634,0.0827,0.0923,0.161,0.221,0.274,0.1,0.49,0.252,0.461,,,,,,,,
C[C@H]1CCC/C=C/[C@@H]2C[C@H](O)C[C@H]2[C@H](O)/C=C/C(=O)O1 [Brefeldin A],,0.0711,0.075,0.0688,0.0708,0.0703,0.0786,,0.218,0.387,0.628,0.709,0.77,0.793,,0.168,0.257,0.333,0.321,0.29,0.411,,0.0868,0.38,0.634,0.701,0.762,0.775,0.0716,0.86,0.389,0.818,,,,,,,,
CO[C@H]1C[C@@H]2CC[C@@H](C)[C@@](O)(O2)C(=O)C(=O)N2CCCC[C@H]2C(=O)O[C@H]([C@H](C)C[C@@H]2CC[C@@H](O)[C@H](OC)C2)CC(=O)[C@H](C)/C=C(\C)[C@@H](O)[C@@H](OC)C(=O)[C@H](C)C[C@H](C)/C=C/C=C/C=C/1C [Rapamycin],0.0624,0.0616,0.0646,0.0631,0.0613,0.0695,0.0695,0.0761,0.0732,0.0721,0.0738,0.0786,0.084,0.0965,0.0742,0.0686,0.0757,0.0711,0.0784,0.0724,0.0767,0.062,0.0603,0.0606,0.0645,0.061,0.0607,0.0674,,,,,,,,,,,,
C/C=C(/C)C(=O)O[C@H]1C(C)=C2[C@H]([C@@H]1OC(=O)CCCCCCC)[C@@](C)(OC(C)=O)C[C@H](OC(=O)CCC)[C@@]1(O)[C@H]2OC(=O)[C@@]1(C)O [Thapsigargin],,0.0914,0.192,0.171,0.266,0.163,0.811,,0.631,0.675,0.688,0.71,0.721,0.779,,0.228,0.265,0.324,0.296,0.48,0.831,,0.405,0.476,0.473,0.602,0.585,0.763,0.884,0.892,0.892,0.862,,,,,,,,
Cc1c2oc3c(C)ccc(C(=O)N[C@@H]4C(=O)N[C@H](C(C)C)C(=O)N5CCC[C@H]5C(=O)N(C)CC(=O)N(C)[C@@H](C(C)C)C(=O)O[C@@H]4C)c3nc-2c(C(=O)N[C@@H]2C(=O)N[C@H](C(C)C)C(=O)N3CCC[C@H]3C(=O)N(C)CC(=O)N(C)[C@@H](C(C)C)C(=O)O[C@@H]2C)c(N)c1=O [Actinomycin-D],0.0792,0.088,0.0799,0.0933,0.0822,,,0.648,0.35,0.254,0.406,0.377,,,0.311,0.206,0.243,0.368,0.328,,,0.505,0.545,0.4,0.637,0.578,,,,,,,0.0757,0.0754,0.101,0.199,0.0967,0.164,0.0789,0.0968
